Measurements reported in US9433659B2, “Enhanced glycemic control using Ad36E4orf1 and AKT1 inhibitor” (priority 2012, dated 2016).

Experiments:
Assay type in all cases: cell-based
3T3-L1 cells = assay: Adipogenic differentiation by oil red O staining in inducible E4orf1 stable cell line; conditions: 3T3-L1 cells expressing Ad36 E4orf1 on doxycycline; 0, 1, or 5 M of 2ATD; up to nine days
Description: FIG. 7A-F are photomicrographs of 3T3-L1 cells. […] FIGS. 7D-F show 3T3-L1 cells that express Ad36 E4orf1 when exposed to doxycycline, treated with 0, 1, or 5 M, respectively, of 2ATD—a specific inhibitor of AKT1 signalling.
3T3-L1 cells that express Ad36 E4orf1 when exposed to doxycycline (10) were generated. […] Confluent E4orf1 and pTRE cells were exposed to adipogenic media to induce differentiation. In addition the cells were treated with 0, 1 or 5 M of 2ATD—a specific inhibitor of AKT1 signalling. This media was refreshed every two days for up to nine days. Adipogenic differentiation was verified by oil red O staining (FIGS. 7A-F).

PPARγ [1] = assay: PPARγ expression by qRT-PCR in E4orf1 and pTRE cells
Description: (§1) Confluent E4orf1 and pTRE cells were exposed to adipogenic media to induce differentiation. In addition the cells were treated with 0 or 5 μM of 2ATD—a specific inhibitor of AKT1 signalling. This media was refreshed every two days for up to nine days. Basal and insulin stimulated 2DG uptake was determined 24 hours post induction in the presence of 1000 ng/ml of doxycycline expression of PPARγ and adiponectin—markers of adipogenesis, by qRT-PCR.

adiponectin = assay: Adiponectin expression by qRT-PCR in E4orf1 and pTRE cells
Description: as §1

PPARγ [2] = assay: PPARγ protein abundance in 3T3-L1 adipocytes; conditions: 0, 1 or 5 μM ATD
Description: FIG. 10 is a graph showing ATD inhibits PPARγ protein abundance. 3T3-L1 adipocytes were transfected with a null vector (V5), and exposed to 10 μM TZD, or transfected with a plasmid expressing E4orf1 protein. Both groups were exposed to […] ATD.
(§2) 3T3-L1 adipocytes were transfected with a null vector and exposed to 10 μM TZD, or transfected with a plasmid expressing E4orf1 protein. Both groups were exposed to 0, 1 or 5 μM ATD. […] The glucose uptake in adipocytes was PPARγ-dependent in the presence of TZD, but not when induced by E4orf1. Thus, by down-regulating AKT-1 signaling E4orf1 can be used to enhance glucose uptake by adipocytes, without further increasing lipid accumulation.

3T3-L1 adipocytes = assay: Glucose uptake in 3T3-L1 adipocytes exposed to ATD; conditions: null vector, 10 μM TZD; increasing concentration of ATD (0, 1 or 5 μM)
Description: as §2

[3] = system: E4orf1 and pTRE inducible stable cells; assay: Basal and insulin stimulated glucose (2DG) uptake in presence of 2-ATD
Description: E4orf1 and pTRE inducible stable cells were exposed to adipogenic media to induce differentiation and treated with 0 or 5 μM of 2-ATD. Basal and insulin stimulated 2DG was determined 24 hours after exposure to doxycycline (1000 ng/ml), in presence or absence of insulin (*p<0.05).

[4] = E4orf1 expressing cells, 0 or 5 μM of 2ATD
[5] = effect of E4orf1 expression (doxycycline 1000 ng/ml), qRT-PCR

Molecule: Nc1nncs1 [2-ATD, 2-Aminothiadiazole]
- adipogenesis and lipid accumulation (oil red O staining) (3T3-L1 cells): blocked adipogenesis and lipid accumulation
- PPARγ expression (PPARγ [1]; [4]): significantly reduced PPARγ expression
- PPARγ expression (PPARγ [1]; pTRE cells, 0 or 5 μM of 2ATD): significantly reduced PPARγ expression
- adiponectin expression (adiponectin; [4]): significantly reduced
- PPARγ protein abundance (PPARγ [2]): reduced PPARγ protein abundance
- glucose uptake (3T3-L1 adipocytes): significantly reduced glucose uptake

B1: E4orf1: Adenovirus-36 E4orf1 protein, SEQ ID NO:2; expressed in 3T3-L1 cells by doxycycline induction or plasmid (protein, listed as Human adenovirus)
chain: MAESLYAFIDSPGGIAPVQEGASNRYIFFCPESFHIPPHGVILLHLRVSVLVPTGYQGRFMALNDYHARGILTQSDVIFAGRRHDLSVLLFNHTDRFLYVREGHPVGTLLLERVIFPSVRIATLV
- PPARγ expression (PPARγ [1]; [5]): significantly increased the expression of PPARγ and adiponectin
- adiponectin expression (adiponectin; [5]): significantly increased the expression of PPARγ and adiponectin
- glucose uptake (2DG) despite 2-ATD treatment ([3]; E4orf1 expressing cells treated with 5 μM of 2-ATD): continued to show significantly greater glucose uptake
- glucose uptake (2DG) ([3]; E4orf1 expression compared to pTRE, 24 hours after doxycycline (1000 ng/ml), basal and insulin stimulated): increased glucose uptake compared to that in pTRE
